Patent publication US20260092071A1, “COMPOUNDS AND COMPOSITIONS AS SMARCA2/4 DEGRADERS AND USES THEREOF” (REGENTS OF THE UNIVERSITY OF MICHIGAN, priority 2022, published 2026)
Like-named read-outs stand apart in the source and are kept apart here.

Experiments:
SMARCA4 = SMARCA4 (Homo sapiens, UniProt P51532); test: HiBiT assay for protein degradation, Hela SMARCA4-HiBiT cells (A series); type: cell-based; parameters: fuse HiBiT to the carboxy terminus of SMARCA2 (Promega CS302365) or SMARCA4 (Promega CS3023225); host or cells: HeLa (CRISPR/Cas9 HiBiT knock-in); conditions: for DC50: read-out: SMARC A4 Hela HiBit DC50; for Dmax: read-out: SMARC A4 Hela HiBit Dmax(%)
SMARCA4, sequence (P51532 whole entry): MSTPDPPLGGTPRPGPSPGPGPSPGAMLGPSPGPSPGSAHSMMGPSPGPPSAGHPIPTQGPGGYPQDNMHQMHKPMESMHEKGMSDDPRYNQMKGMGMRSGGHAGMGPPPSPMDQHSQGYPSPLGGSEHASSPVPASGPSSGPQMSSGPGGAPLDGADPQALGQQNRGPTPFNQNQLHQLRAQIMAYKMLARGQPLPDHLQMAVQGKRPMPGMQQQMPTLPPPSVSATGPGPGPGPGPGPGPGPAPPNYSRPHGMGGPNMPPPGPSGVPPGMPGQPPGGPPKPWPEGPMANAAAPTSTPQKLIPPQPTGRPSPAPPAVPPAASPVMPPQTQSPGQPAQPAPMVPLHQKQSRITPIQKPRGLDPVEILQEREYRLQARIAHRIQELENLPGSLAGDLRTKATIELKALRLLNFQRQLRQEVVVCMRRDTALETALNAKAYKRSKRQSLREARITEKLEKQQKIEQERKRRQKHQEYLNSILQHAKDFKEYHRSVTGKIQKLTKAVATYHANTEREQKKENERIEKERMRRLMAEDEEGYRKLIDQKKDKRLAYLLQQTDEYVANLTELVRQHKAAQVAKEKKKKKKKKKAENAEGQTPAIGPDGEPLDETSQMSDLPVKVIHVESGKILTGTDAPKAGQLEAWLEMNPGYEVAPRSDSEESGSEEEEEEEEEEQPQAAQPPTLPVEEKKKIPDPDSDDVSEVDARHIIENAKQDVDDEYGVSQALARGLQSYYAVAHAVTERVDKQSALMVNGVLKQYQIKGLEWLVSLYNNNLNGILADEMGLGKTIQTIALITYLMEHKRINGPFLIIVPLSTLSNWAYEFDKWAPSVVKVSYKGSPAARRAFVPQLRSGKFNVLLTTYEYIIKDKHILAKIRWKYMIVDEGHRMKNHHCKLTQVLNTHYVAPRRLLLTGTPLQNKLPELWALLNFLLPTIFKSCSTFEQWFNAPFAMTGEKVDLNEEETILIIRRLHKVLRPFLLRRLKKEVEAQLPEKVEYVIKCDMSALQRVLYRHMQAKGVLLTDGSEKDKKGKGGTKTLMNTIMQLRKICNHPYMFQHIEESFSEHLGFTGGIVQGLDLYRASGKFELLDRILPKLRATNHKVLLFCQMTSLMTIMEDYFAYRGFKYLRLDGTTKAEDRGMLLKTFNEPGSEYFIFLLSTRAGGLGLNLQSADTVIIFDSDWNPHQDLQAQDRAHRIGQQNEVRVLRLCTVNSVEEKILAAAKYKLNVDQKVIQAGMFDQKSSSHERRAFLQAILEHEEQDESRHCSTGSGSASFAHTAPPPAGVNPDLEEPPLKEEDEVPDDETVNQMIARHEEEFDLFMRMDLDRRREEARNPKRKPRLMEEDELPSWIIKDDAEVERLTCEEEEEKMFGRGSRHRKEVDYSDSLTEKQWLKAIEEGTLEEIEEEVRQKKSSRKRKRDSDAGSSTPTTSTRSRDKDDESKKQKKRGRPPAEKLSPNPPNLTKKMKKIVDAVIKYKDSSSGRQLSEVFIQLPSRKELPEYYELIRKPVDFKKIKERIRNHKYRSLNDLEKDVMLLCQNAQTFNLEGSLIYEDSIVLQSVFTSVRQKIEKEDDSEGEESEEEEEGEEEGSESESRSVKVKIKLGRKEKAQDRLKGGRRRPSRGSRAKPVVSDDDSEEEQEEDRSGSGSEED
How it was run: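 SMARCA4 degradation was measured in HeLa cells in which HiBiT had been knocked into the SMARCA4 carboxy terminus via CRISPR/Cas9 (Promega CS3023225). Cells were maintained in DMEM with FBS and penicillin-streptomycin. At the end of treatment, SMARCA4 levels were read by lytic HiBiT luminescence (Nano-Glo®, Promega N3050), and data were analyzed with GraphPad Prism.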

SMARCA2 = SMARCA2 (Homo sapiens, UniProt P51531); test: HiBiT assay for protein degradation, Hela SMARCA2-HiBiT cells (A series); type: cell-based; parameters: Hela cells were genetically modified via CRISPR/Cas9 to fuse HiBiT to the carboxy terminus of SMARCA2; host or cells: HeLa (CRISPR/Cas9 HiBiT knock-in);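 as to SMARC A2 Hela HiBit Dmax (%): 24 h compound treatment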
SMARCA2, sequence (P51531 whole entry): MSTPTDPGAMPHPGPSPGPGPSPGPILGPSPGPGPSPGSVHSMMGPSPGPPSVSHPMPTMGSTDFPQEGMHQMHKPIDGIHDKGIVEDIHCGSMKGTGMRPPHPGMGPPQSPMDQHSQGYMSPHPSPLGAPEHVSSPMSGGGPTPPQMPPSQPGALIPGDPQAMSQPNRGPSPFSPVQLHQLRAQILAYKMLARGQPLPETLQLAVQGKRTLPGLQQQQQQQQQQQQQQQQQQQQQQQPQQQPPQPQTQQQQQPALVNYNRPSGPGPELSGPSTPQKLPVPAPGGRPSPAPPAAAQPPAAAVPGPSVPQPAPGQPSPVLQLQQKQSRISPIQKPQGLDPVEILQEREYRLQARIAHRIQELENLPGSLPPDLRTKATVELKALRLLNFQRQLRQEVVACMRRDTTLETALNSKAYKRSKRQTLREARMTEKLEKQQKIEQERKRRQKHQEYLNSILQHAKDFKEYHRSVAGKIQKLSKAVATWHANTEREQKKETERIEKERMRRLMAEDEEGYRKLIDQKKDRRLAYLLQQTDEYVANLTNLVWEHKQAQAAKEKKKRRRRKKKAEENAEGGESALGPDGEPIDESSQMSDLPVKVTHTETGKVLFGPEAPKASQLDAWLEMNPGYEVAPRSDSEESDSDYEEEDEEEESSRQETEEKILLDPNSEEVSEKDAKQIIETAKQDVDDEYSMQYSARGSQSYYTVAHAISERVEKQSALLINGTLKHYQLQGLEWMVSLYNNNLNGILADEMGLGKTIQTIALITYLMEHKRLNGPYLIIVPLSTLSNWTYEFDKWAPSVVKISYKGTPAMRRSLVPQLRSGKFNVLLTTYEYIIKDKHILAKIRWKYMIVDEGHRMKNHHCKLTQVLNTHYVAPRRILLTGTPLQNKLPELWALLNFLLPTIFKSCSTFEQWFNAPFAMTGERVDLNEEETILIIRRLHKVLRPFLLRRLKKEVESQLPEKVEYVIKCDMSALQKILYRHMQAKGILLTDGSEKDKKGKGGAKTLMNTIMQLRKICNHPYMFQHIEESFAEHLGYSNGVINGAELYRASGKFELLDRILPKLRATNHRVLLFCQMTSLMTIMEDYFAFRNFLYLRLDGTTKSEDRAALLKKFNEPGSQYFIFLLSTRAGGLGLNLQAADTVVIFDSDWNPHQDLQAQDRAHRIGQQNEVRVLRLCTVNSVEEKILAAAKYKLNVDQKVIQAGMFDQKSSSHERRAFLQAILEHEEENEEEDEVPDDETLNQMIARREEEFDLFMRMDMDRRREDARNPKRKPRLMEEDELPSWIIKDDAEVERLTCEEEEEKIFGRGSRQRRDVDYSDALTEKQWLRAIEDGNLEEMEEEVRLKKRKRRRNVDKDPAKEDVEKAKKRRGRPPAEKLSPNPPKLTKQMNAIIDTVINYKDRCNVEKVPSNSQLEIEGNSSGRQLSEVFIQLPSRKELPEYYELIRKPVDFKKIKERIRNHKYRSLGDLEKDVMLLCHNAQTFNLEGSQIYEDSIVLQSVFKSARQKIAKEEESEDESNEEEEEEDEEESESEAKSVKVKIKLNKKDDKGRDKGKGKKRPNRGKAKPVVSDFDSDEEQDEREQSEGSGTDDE
How it was run: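 SMARCA2 degradation was measured in HeLa cells whose endogenous SMARCA2 carries a carboxy-terminal HiBiT tag introduced by CRISPR/Cas9 (Promega CS302365). Cells were maintained in DMEM with FBS and penicillin-streptomycin. SMARCA2 levels were read at the end of the experiment by Nano-Glo® HiBiT lytic luminescence (Promega N3050) and analyzed in GraphPad Prism.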

[1] = Hela SMARCA4-HiBiT cells, 24 hours treatment
[2] = Hela SMARCA2-HiBiT cells, 24 hours treatment; read-out: SMARC A2 Hela HiBit DC50
[3] = Hela SMARCA2-HiBiT cells, 24 hours treatment; read-out: SMARC A2 Hela HiBit Dmax (%)
[4] = HeLa, read-out: SMARC A2 Hela HiBit Dmax (%)
[5] = read-out: SMARC A2 Hela HiBit DC50

## Cc1ncsc1-c1ccc([C@H](CCCCCN2CCC(c3ccc4c(c3)C3(CCCCC3)c3nc(=O)c5c(Br)cccc5n3-4)CC2)NC(=O)[C@H]2C[C@H](O)CN2C(=O)[C@@H](n2cc(C3CC3)nn2)C(C)(C)C)cc1 [Compound A35, (2R,4S)—N—((S)-6-(4-(4′-bromo-5′-oxo-5′H-spiro[cyclohexane-1,7′-indolo[1,2-a]quinazolin]-9′-yl)piperidin-1-yl)-1-(4-(4-methylthiazol-5-yl)phenyl)hexyl)-1-((S)-2-(4-cyclopropyl-1H-1,2,3-triazol-1-yl)-3,3-dimethylbutanoyl)-4-hydroxypyrrolidine-2-carboxamide]
SMARCA4; [1]
  DC50: < 0.1 µM
  Dmax: > 90%
SMARCA2; [2]
  DC50: < 0.1 µM
SMARCA2; [3]
  Dmax: > 90%

## Cc1ncsc1-c1ccc([C@H](CCCCCN2CCC(c3ccc4c(c3)-n3c(nc(=O)c5c(Br)cccc53)C43CCCCC3)CC2)NC(=O)[C@H]2C[C@H](O)CN2C(=O)[C@@H](n2cc(C3CC3)nn2)C(C)(C)C)cc1 [Compound A36, (2R,4S)—N—((S)-6-(4-(4′-bromo-5′-oxo-5′H-spiro[cyclohexane-1,7′-indolo[1,2-a]quinazolin]-10′-yl)piperidin-1-yl)-1-(4-(4-methylthiazol-5-yl)phenyl)hexyl)-1-((S)-2-(4-cyclopropyl-1H-1,2,3-triazol-1-yl)-3,3-dimethylbutanoyl)-4-hydroxypyrrolidine-2-carboxamide]
SMARCA4; [1]
  DC50: < 0.1 µM
  Dmax: > 90%
SMARCA2; [2]
  DC50: < 0.1 µM
SMARCA2; [3]
  Dmax: > 90%

## Cc1ncsc1-c1ccc([C@H](CCCCCN2CCC(c3ccc4c(n3)-n3c(nc(=O)c5c(Br)cccc53)C43CCCCC3)CC2)NC(=O)[C@H]2C[C@H](O)CN2C(=O)[C@@H](n2cc(C3CC3)nn2)C(C)(C)C)cc1 [Compound A37, (2R,4S)—N—((S)-6-(4-(4′-bromo-5′-oxo-5′H-spiro[cyclohexane-1,7′-pyrido[3′,2′: 4,5]pyrrolo[1,2-a]quinazolin]-10′-yl)piperidin-1-yl)-1-(4-(4-methylthiazol-5-yl)phenyl)hexyl)-1-((S)-2-(4-cyclopropyl-1H-1,2,3-triazol-1-yl)-3,3-dimethylbutanoyl)-4-hydroxypyrrolidine-2-carboxamide]
SMARCA4; [1]
  DC50: < 0.1 µM
  Dmax: > 90%
SMARCA2; [2]
  DC50: < 0.1 µM
SMARCA2; [3]
  Dmax: > 90%

## Cc1ncsc1-c1ccc([C@H](CCCCCN2CCC(c3ccc4c(c3)C3(CCCCC3)c3nc(=O)c5c(Br)cccc5n3-4)CC2)NC(=O)[C@H]2C[C@H](O)CN2C(=O)[C@@H](NC(=O)C2(CN3CCOCC3)CC2)C(C)(C)C)cc1 [Compound A38, (2R,4S)—N—((S)-6-(4-(4′-bromo-5′-oxo-5′H-spiro[cyclohexane-1,7′-indolo[1,2-a]quinazolin]-9′-yl)piperidin-1-yl)-1-(4-(4-methylthiazol-5-yl)phenyl)hexyl)-1-((S)-3,3-dimethyl-2-(1-(morpholinomethyl)cyclopropane-1-carboxamido)butanoyl)-4-hydroxypyrrolidine-2-carboxamide]
SMARCA4; [1]
  DC50: 0.1 to 0.5 µM
  Dmax: 70 to 90%
SMARCA2; [2]
  DC50: < 0.1 µM
SMARCA2; [3]
  Dmax: > 90%

## Cc1ncsc1-c1ccc([C@H](C)NC(=O)[C@@H]2C[C@@H](O)CN2C(=O)[C@@H](NC(=O)CN2CCC(c3ccc4c(c3)-n3c(nc(=O)c5c(Cl)cccc53)C43CCCCC3)CC2)C(C)(C)C)cc1 [Compound A39, (2S,4R)-1-((S)-2-(2-(4-(4′-chloro-5′-oxo-5′H-spiro[cyclohexane-1,7′-indolo[1,2-a]quinazolin]-10′-yl)piperidin-1-yl)acetamido)-3,3-dimethylbutanoyl)-4-hydroxy-N—((S)-1-(4-(4-methylthiazol-5-yl)phenyl)ethyl)pyrrolidine-2-carboxamide]
SMARCA4; [1]
  DC50: < 0.1 µM
  Dmax: > 90%
SMARCA2; [2]
  DC50: < 0.1 µM
SMARCA2; [3]
  Dmax: > 90%

## Cc1ncsc1-c1ccc([C@H](C)NC(=O)[C@@H]2C[C@@H](O)CN2C(=O)[C@@H](NC(=O)CN2CCC(c3ccc4c(c3)-n3c(nc(=O)c5c(Br)cccc53)C43CCCCC3)CC2)C(C)(C)C)cc1 [Compound A40, (2S,4R)-1-((S)-2-(2-(4-(4′-bromo-5′-oxo-5′H-spiro[cyclohexane-1,7′-indolo[1,2-a]quinazolin]-10′-yl)piperidin-1-yl)acetamido)-3,3-dimethylbutanoyl)-4-hydroxy-N—((S)-1-(4-(4-methylthiazol-5-yl)phenyl)ethyl)pyrrolidine-2-carboxamide]
SMARCA4; HeLa
  Dmax: > 90%
SMARCA4
  DC50: < 0.1 µM
SMARCA2; [4]
  Dmax: > 90%
SMARCA2; [5]
  DC50: < 0.1 µM

## Cc1ncsc1-c1ccc([C@H](C)NC(=O)[C@@H]2C[C@@H](O)CN2C(=O)[C@@H](NC(=O)[C@H]2CC[C@H](CN3CCC(c4ccc5c(c4)-n4c(nc(=O)c6c(Br)cccc64)C54CCCCC4)CC3)CC2)C(C)(C)C)cc1 [Compound A41, (2S,4R)-1-((S)-2-((1r,4S)-4-((4-(4′-bromo-5′-oxo-5′H-spiro[cyclohexane-1,7′-indolo[1,2-a]quinazolin]-10′-yl)piperidin-1-yl)methyl)cyclohexane-1-carboxamido)-3,3-dimethylbutanoyl)-4-hydroxy-N—((S)-1-(4-(4-methylthiazol-5-yl)phenyl)ethyl)pyrrolidine-2-carboxamide]
SMARCA4; HeLa
  Dmax: < 50%
SMARCA4; [1]
  SMARC A4 Hela HiBit DC50(nM): No Fit
SMARCA2; [4]
  Dmax: 70 to 90%
SMARCA2; [2]
  DC50: < 0.1 µM

## Cc1ncsc1-c1ccc([C@H](C)NC(=O)[C@@H]2C[C@@H](O)CN2C(=O)[C@@H](NC(=O)[C@H]2CC[C@H](CN3CCC(c4ccc5c(c4)-n4c(nc(=O)c6c(Cl)cccc64)C54CCCCC4)CC3)CC2)C(C)(C)C)cc1 [Compound A42, (2S,4R)-1-((S)-2-((1r,4S)-4-((4-(4′-chloro-5′-oxo-5′H-spiro[cyclohexane-1,7′-indolo[1,2-a]quinazolin]-10′-yl)piperidin-1-yl)methyl)cyclohexane-1-carboxamido)-3,3-dimethylbutanoyl)-4-hydroxy-N—((S)-1-(4-(4-methylthiazol-5-yl)phenyl)ethyl)pyrrolidine-2-carboxamide]
SMARCA4; [1]
  SMARC A4 Hela HiBit DC50(nM): No Fit
SMARCA2; [3]
  Dmax: 70 to 90%
SMARCA2; read-out: SMARC A2 Hela HiBit DC50; Hela SMARCA2-HiBiT cells, 24 hours treatment
  DC50: < 0.1 µM

## Cc1ncsc1-c1ccc([C@H](C)NC(=O)[C@@H]2C[C@@H](O)CN2C(=O)[C@@H](n2cc(CN3CCC(c4ccc5c(c4)-n4c(nc(=O)c6c(Br)cccc64)C54CCCCC4)CC3)nn2)C(C)(C)C)cc1 [Compound A43, (2S,4R)-1-((S)-2-(4-((4-(4′-bromo-5′-oxo-5′H-spiro[cyclohexane-1,7′-indolo[1,2-a]quinazolin]-10′-yl)piperidin-1-yl)methyl)-1H-1,2,3-triazol-1-yl)-3,3-dimethylbutanoyl)-4-hydroxy-N—((S)-1-(4-(4-methylthiazol-5-yl)phenyl)ethyl)pyrrolidine-2-carboxamide]
SMARCA4; [1]
  DC50: < 0.1 µM
  Dmax: 70 to 90%
SMARCA2; [2]
  DC50: < 0.1 µM
SMARCA2; [3]
  Dmax: > 90%

## Cc1ncsc1-c1ccc([C@H](C)NC(=O)[C@@H]2C[C@@H](O)CN2C(=O)[C@@H](n2cc(CCCN3CCC(c4ccc5c(c4)-n4c(nc(=O)c6c(Br)cccc64)C54CCCCC4)CC3)nn2)C(C)(C)C)cc1 [Compound A44, (2S,4R)-1-((S)-2-(4-(3-(4-(4′-bromo-5′-oxo-5′H-spiro[cyclohexane-1,7′-indolo[1,2-a]quinazolin]-10′-yl)piperidin-1-yl)propyl)-1H-1,2,3-triazol-1-yl)-3,3-dimethylbutanoyl)-4-hydroxy-N—((S)-1-(4-(4-methylthiazol-5-yl)phenyl)ethyl)pyrrolidine-2-carboxamide]
SMARCA4; [1]
  SMARC A4 Hela HiBit Dmax(%): B (B (70-90% degradation))
SMARCA4
  DC50: < 0.1 µM
SMARCA2; Hela SMARCA2-HiBiT cells, 24 hours treatment
  SMARC A2 Hela HiBit Dmax (%): A (A (>90% degradation))
SMARCA2; [5]
  DC50: < 0.1 µM
